From patent US11186603B2, “Heparan sulfate glycomimetic compounds and their pharmaceutical and cosmeceutical uses” (VICTORIA LINK LIMITED, priority 2017, dated 2021)
“And” between values parts separate entries of the source, which are not always exact repeats. Equal entries are not always repeated. “Also recorded” adds a separate entry of the source.

Experiments:
[1] = tested on: human dermal fibroblast cell line, CRL2071; experiment: Production of collagen type I (ELISA); format: cell-based
Description: (§1) Cells from the human dermal fibroblast cell line, CRL2071 (passages 12-14), obtained from normal breast skin of a person, were allowed to attach for 6-8 hours before the addition of the test compounds. After 72 h of exposure to the test articles the media was removed, cells counted and the cell-associated fraction extracted. The media and cell-associated fraction were analysed for the concentration of collagen type I using a Chondrex Human type I Collagen Detection Kit ELISA (Cat #6021).
After complete dissolution the solutions were sterile filtered through a […] syringe filter and kept at 4° C. until use. Prior to each experiment dilutions were freshly prepared by diluting to 100 nM, 1 μM or 10 μM in cell-specific media.
(§2) The test compounds, positive controls and no treatment media were added to the flasks (2.5 ml/flask) and cells were incubated for 72 h before removal of the supernatant. After removal of the supernatant, cell monolayers were trypsinsed with 2.5 ml of 0.025% trypsin/[…] in PBS to each flask. After cell detachment (7-10 min), 1 ml of the cell/trypsin mixture was added to a 20 ml counting vial containing 9 ml of normal saline. The cells were quantitated with a Coulter Counter Z2.
(§3) In some treatments cells were found floating. They were collected, counted and subjected to viability testing using 1% trypan blue staining. The remaining 1.5 ml of trypsin/cell mixture was sonicated with a Branson tip-probed sonicator for 1 min, setting 6 before centrifugation at 10,000 rpm for 10 min. The supernatant was removed and used in the collagen ELISA for the quantitation of cell-associated collagen.

[2] = biological target: T1, Recombinant human heparanase (Homo sapiens, UniProt Q9Y251); experiment: Heparanase inhibition colorimetric assay (fondaparinux / WST-1); format: biochemical; conditions: FIGS. 1 to 3; inhibitor 1 μM, 10 μM and dose response
T1 construct: made in house; host or cells: insect cells
T1 sequence (Q9Y251 158-543 limits assumed): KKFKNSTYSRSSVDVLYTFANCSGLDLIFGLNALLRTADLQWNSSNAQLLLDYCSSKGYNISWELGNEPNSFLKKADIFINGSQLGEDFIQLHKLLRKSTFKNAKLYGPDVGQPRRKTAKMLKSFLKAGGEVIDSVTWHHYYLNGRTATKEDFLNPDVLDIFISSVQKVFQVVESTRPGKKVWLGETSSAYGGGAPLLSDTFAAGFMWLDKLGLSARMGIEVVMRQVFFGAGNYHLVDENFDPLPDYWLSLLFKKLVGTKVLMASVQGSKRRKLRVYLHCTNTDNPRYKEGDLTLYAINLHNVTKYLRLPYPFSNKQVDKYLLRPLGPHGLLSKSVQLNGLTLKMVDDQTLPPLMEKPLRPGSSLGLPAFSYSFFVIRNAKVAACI
T1 sequence (Q9Y251 36-109 limits assumed): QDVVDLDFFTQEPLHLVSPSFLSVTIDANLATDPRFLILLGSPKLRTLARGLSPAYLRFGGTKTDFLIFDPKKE
Description: The assay methodology used is described in Hammond, E., et al., Development of a colorimetric assay for heparanase activity suitable for kinetic analysis and inhibitor screening, Anal. Biochem. 2010, 396 (1), 112-116.
Reagents were obtained from Sigma-Aldrich. Assays were carried out in 96-well microplates (Costar 9018 EIA/RIA, Corning) that had been pretreated with a solution of 4% bovine serum albumin (BSA) in phosphate-buffered saline containing 0.05% Tween 20 (PBST) for 2 h at 37° C. The plates were then washed three times with PBST and shaken dry. Pretreated plates were stored at 4° C. for up to 2 weeks before use.
Recombinant human heparanase was expressed in insect cells and then purified from the cell medium into which it had been secreted. […] Fractions containing pure heparanase, determined by silver staining of sodium dodecyl sulfate-polyacrylamide gel electrophoresis (SDS-PAGE), were pooled, dialyzed into 10 mM sodium phosphate (pH 7.0), concentrated using Centriplus concentrating devices (Millipore), and stored at −80° C. until use.
Assay solutions (100 μl) were composed of 40 mM sodium acetate buffer (pH 5.0) and […] fondaparinux (GlaxoSmithKline) with or without inhibitor. […] The plates were resealed with adhesive tape and developed at 60° C. for 60 min, and the absorbance was measured at 584 nm (FLUOstar, BMG Labtech).

[3] = tested on: human dermal fibroblast cell line, CRL2071; experiment: Production of hyaluronan (ELISA); format: cell-based; conditions: liberated, 10 μM, 72 h
Description: as §1, with “hyaluronan” for “collagen type I”, “Hyaluronan” for “Chondrex Human type I Collagen”, “ELISA.” for “ELISA (Cat #6021).”
as §2
as §3, with “hyaluronan” for “collagen”, “hyaluronan.” for “collagen.”

[4] = tested on: bacterial collagenase type II from Clostridium histolyticum; experiment: Colorimetric gelatinolytic assay, collagenase inhibition; format: biochemical; conditions: 10 μM
Description: A colorimetric gelatinolytic assay was used to evaluate the effects of heparanase inhibitors on the activity of bacterial collagenase type II from Clostridium histolyticum. The reaction mixture was prepared in a total volume of 20 μl for each well of the microplate/inhibition assay. First, 1 ul of 100 ng of bacterial collagenase and 2 μl of the heparanase inhibitor or positive control (50 μg/ml doxycycline) were added into each well of a 96-well plate and incubated at 37° C. for 60 min. On completion of the incubation, 10 μg of gelatin and 2 μl of 10× collagenase buffer (500 mM Tris-HCl, 100 mM CaCl2, and 1.5 M NaCl) were added to distilled water to obtain the final volume of 20 μl. The plate was then incubated at 37° C. for 4 h. Subsequently, the amount of gelatin remaining was quantified by the addition of 20 μl of 2.5% w/v of Coomassie Brilliant blue R-250 (Sigma-Aldrich) dissolved in 40% methanol/10% acetic acid, followed by shaking on an orbital shaker for 5 min. The supernatant was carefully removed by pipette to ensure that the gelatin pellet was not disturbed and 50 μl of dimethyl sulfoxide was added to dissolve the pellet. The plate was incubated at room temperature for 15 min followed by shaking on an orbital shaker for 5 min. The plate was then read in a Versa max microplate reader at 600 nm.

**Q.** Which “Collagen as % of No Treatment Control (Mean ± SD), Cell-associated” value [1] does the source give for `O=C(CCOCC(COCCC(=O)NCCCCCCOC1OC(COS(=O)(=O)[O-])C(OS(=O)(=O)[O-])C(OS(=O)(=O)[O-])C1OS(=O)(=O)[O-])(COCCC(=O)NCCCCCCOC1OC(COS(=O)(=O)[O-])C(OS(=O)(=O)[O-])C(OS(=O)(=O)[O-])C1OS(=O)(=O)[O-])COCCC(=O)NCCCCCCOC1OC(COS(=O)(=O)[O-])C(OS(=O)(=O)[O-])C(OS(=O)(=O)[O-])C1OS(=O)(=O)[O-])NCCCCCCOC1OC(COS(=O)(=O)[O-])C(OS(=O)(=O)[O-])C(OS(=O)(=O)[O-])C1OS(=O)(=O)[O-].[Na+].[Na+].[Na+].[Na+].[Na+].[Na+].[Na+].[Na+].[Na+].[Na+].[Na+].[Na+].[Na+].[Na+].[Na+].[Na+]` (stereo not shown) [Compound 17b] here?
**A.** The value was 1,155 ± 25% and 2,371 ± 49% and 2,371%.

**Q.** What about the “inhibition of heparanase (in words)” value [2] of the same compound?
**A.** The value was “particularly good inhibitors; also recorded: very good inhibition of heparanase”.

**Q.** And the “Hyaluronan as % of No Treatment Control (Mean ± SD)” value [3]?
**A.** Its value is 167 ± 36p = 0.233%.

**Q.** What about the “Collagenase inhibition as a % of the "No Treatment" control (Mean ± SD)” value [4] of the same compound?
**A.** The value was 74 ± 2%.
